Results reported in patent publication US9403832B2, “Pyrazolo[1,5-a]pyrimidine-based compounds, compositions comprising them, and methods of their use” (Lexicon Pharmaceuticals, Inc., priority 2012, dated 2016).

How the values were obtained:
AAK1 [1] = biological target: T1, AAK1 (Homo sapiens, UniProt Q2M2I8); test: HEK281 cell-based assay (CBA); conditions: HEK293F cells transfected with full length human AAK1 and AP2M1; phospho-mu2 Western blot; 3 hours incubation
T1 construct: NP_055726.2
Method: HEK293F cells were cultured in media containing DMEM (Gibco, cat. #11965), 10% FBS (SAFC Biosciences, cat. #12103C), 1× GPS (glutamine, penicillin and streptomycin). On day one, cells were plated on a 10 cm dish so that they are ˜80% confluent at time of transfection. Roughly 12 million cells were in a 10 cm dish at time of transfection. On day two, each dish was transfected with 48 ug DNA and 144 ul Lipofectamine 2000 (Invitrogen, cat. #11668-019). The DNA was comprised of a mixture (per 10 cm dish) containing 3 ug AAK1/HA/pIRES (full length human, NCBI accession no. NP_055726.2), 45 μg Flag/AP2MI/pcDNA (full length human), and 1.5 ml OPTI-MEM. The Lipofectamine 2000 is made up of a mixture (per 10 cm dish) containing 144 μl Lipofectamine 2000 and 1.5 ml OPTI-MEM. Each mixture was transferred to individual 15 ml tubes and incubated at RT for 5 minutes, and then the two mixes were combined and incubated at RT for 20 minutes.
Growth media was then aspirated from each 10 cm plate and replaced with 10 ml of DMEM+10% FBS (no GPS). Finally, 3 ml DNA/Lipofectamine mix was added to each 10 cm dish and mix gently followed by incubate of plate overnight at 37° C. and 5% CO2.
On day three, compounds were diluted in 100% DMSO at 1000× final concentration, followed by 3-fold serial dilutions for a total of 5 concentrations tested. Four compounds were tested per 10 cm dish. One ul of each compound dilution was then pipetted into a deep-well, 96-well plate, followed by addition of 500 μl DMEM+0.5% FBS into each well for a 2× final concentration of each compound. Cells were resuspended in a 10 cm dish by simple pipetting (HEK293 cells come off the plate that easy at this point) and then transferred to a 50 ml conical tube and pelleted by centrifugation at 1000 rpm for 5 min. Cell pellets were then resuspended in 2.75 ml DMEM+0.5% FBS per 10 cm dish and 100 μl of cell suspension transferred into each well of 96-well TC plate. Finally, 100 μl of 2× compound diluted in DMEM+0.5% FBS was then added into wells containing cell suspension for a 1× final concentration. Plates were then incubated at 37° C. and 5% CO2 for 3 hours followed by transferring of cell suspensions from each well into 12-tube PCR strips. The PCR strips were spun in a tip rack at 1000 rpm for 5 minutes to pellet cells and media was then removed by pipetting without disturbing the cell pellet.
To prepare for Western Blot analysis, cell pellets were resuspend in 40 ul 1× LDS-PAGE sample buffer (Invitrogen, cat.# NP0008)+2× Halt phophatase and protease inhibitor cocktail (Thermo Scientific, cat. #1861284), followed by sonicating each with microtip sonicator set at 5 for 8-10 seconds. Five ul of 10× NuPage Sample Reducing Agent (with 50 mM DTT) was to each sample followed by heat denaturing at 70 C for 10 min on PCR machine. A total of 10 μl per sample was loaded into each lane of a 4-20% Tris-Glycine Criterion 26-well gel (Biorad, cat. #345-0034) for the phospho-mu2 blot and 10 μl per lane in a 4-12% Bis-Tris (+MES buffer) NuPAGE 26-well gel (Invitrogen, cat.# WG1403BX10) for the mu2 blot. For controls, 2 ng of phospho-mu2 or 20 ng mu2/Flag proteins were loaded in the last well of each gel. After SDS-PAGE, samples on each gel were transferred to PVDF membrane using an iBlot and membranes were blocked for one hour in TBST+5% milk, followed by wash 3× for 5-10 min with TBST. Criterion gels were probed with rabbit anti-phospho-mu2 (1:5000; a rabbit polyclonal antibody produced by New England Peptide and affinity purified at Lexicon) in TBST+5% BSA, whereas, NuPAGE gels were probed with mouse anti-Flag (1:500; Sigma, cat.# F1804) in TBST+5% milk, and these primary antibodies were incubated overnight at 4° C. on a rocker.

AAK1 [2] = biological target: T1, AAK1; test: P81 filter plate assay; type: biochemical; conditions: full-length human AAK1, Mu2 substrate, 33P-ATP
Summary of the method: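 Full-length human AAK1 (0.2 nM, 2×) was pre-incubated 10 min at RT with compounds (top concentration 96 μM in the dilution plate), then reacted 1 h at RT with full-length human Mu2 (0.2 μM, 2×), cold ATP (2 μM, 2×) and ³³P-ATP. Reactions were stopped with phosphoric acid and captured on P81 filters for scintillation counting.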

T1 sequence (Q2M2I8 1-863 isoform Q2M2I8-2): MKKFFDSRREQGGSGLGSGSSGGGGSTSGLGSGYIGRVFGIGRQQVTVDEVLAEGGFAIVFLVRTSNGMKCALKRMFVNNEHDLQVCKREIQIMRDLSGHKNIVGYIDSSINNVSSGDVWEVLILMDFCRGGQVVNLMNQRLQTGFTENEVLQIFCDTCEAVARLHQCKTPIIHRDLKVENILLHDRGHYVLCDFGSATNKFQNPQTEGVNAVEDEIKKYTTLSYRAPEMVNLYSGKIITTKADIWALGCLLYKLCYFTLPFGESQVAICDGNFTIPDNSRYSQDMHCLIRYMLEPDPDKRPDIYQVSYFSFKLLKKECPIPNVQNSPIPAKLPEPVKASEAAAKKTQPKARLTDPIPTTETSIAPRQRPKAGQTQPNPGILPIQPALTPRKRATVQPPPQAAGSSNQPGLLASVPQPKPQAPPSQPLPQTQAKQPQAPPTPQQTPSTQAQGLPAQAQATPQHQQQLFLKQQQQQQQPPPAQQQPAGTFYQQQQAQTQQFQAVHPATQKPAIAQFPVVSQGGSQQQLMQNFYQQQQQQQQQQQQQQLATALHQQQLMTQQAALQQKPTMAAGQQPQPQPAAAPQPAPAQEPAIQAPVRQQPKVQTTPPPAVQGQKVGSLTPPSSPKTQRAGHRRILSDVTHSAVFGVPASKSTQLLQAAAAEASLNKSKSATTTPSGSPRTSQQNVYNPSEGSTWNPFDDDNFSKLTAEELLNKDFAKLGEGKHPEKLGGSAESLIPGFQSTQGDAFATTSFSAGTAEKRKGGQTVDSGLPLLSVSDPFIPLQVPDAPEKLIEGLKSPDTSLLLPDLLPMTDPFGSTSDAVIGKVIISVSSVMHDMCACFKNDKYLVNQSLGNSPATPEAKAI

IC50 (AAK1 [1])	IC50 (AAK1 [2])	SMILES
≤ 10 nM	≤ 10 nM	COc1ccccc1-c1cnn2ccc(N3CCN(C(=O)[C@@H](N)C(C)C)CC3)nc12 [(S)-2-amino-1-(4-(3-(2-methoxyphenyl)pyrazolo[1,5-a]pyrimidin-5-yl)piperazin-1-yl)-3-methylbutan-1-one]
≤ 10 nM	≤ 10 nM	COc1ccc(F)cc1-c1cnn2ccc(N3CCN(C(=O)[C@@H](N)C(C)C)CC3)nc12 [(S)-2-amino-1-(4-(3-(5-fluoro-2-methoxyphenyl)pyrazolo[1,5-a]pyrimidin-5-yl)piperazin-1-yl)-3-methylbutan-1-one]
≤ 10 nM	≤ 10 nM	CC(C)[C@H](N)C(=O)N1CCN(c2ccn3ncc(-c4ccccc4F)c3n2)CC1 [(S)-2-amino-1-(4-(3-(2-fluorophenyl)pyrazolo[1,5-a]pyrimidin-5-yl)piperazin-1-yl)-3-methylbutan-1-one]
≤ 100 nM	≤ 10 nM	CC(C)(C)[C@H](N)C(=O)N1CCN(c2ccn3ncc(-c4ccccc4)c3n2)CC1 [(S)-2-amino-3,3-dimethyl-1-(4-(3-phenylpyrazolo[1,5-a]pyrimidin-5-yl)piperazin-1-yl)butan-1-one]
≤ 10 nM	≤ 10 nM	[2H]C([2H])([2H])Oc1ncccc1-c1cnn2ccc(N3CCN(C(=O)OC(C)(C)C)CC3)nc12 [tert-butyl 4-(3-(2-d3-methoxypyridin-3-yl)pyrazolo[1,5-a]pyrimidin-5-yl)piperazine-1-carboxylate]
≤ 100 nM	≤ 10 nM	COc1ncccc1-c1cnn2ccc(N3CCN(C(=O)[C@@H](N)[C@@H](C)OC)CC3)nc12 [(2S,3R)-2-amino-3-methoxy-1-(4-(3-(2-methoxypyridin-3-yl)pyrazolo[1,5-a]pyrimidin-5-yl)piperazin-1-yl)butan-1-one]
≤ 10 nM	≤ 10 nM	COc1ncccc1-c1cnn2ccc(N3CCN(C(=O)O[C@@H]4CCOC4)CC3)nc12 [(R)-tetrahydrofuran-3-yl 4-(3-(2-methoxypyridin-3-yl)pyrazolo[1,5-a]pyrimidin-5-yl)piperazine-1-carboxylate]
≤ 10 nM	≤ 10 nM	CCOc1ncccc1-c1cnn2ccc(N3CCN(C(=O)OC(C)(C)C)CC3)nc12 [tert-butyl 4-(3-(2-ethoxypyridin-3-yl)pyrazolo[1,5-a]pyrimidin-5-yl)piperazine-1-carboxylate]
≤ 100 nM	≤ 10 nM	CCCOC(=O)N1CCN(c2ccn3ncc(-c4cccnc4OC)c3n2)CC1 [propyl 4-(3-(2-methoxypyridin-3-yl)pyrazolo[1,5-a]pyrimidin-5-yl)piperazine-1-carboxylate]
≤ 10 nM	≤ 10 nM	COc1ncccc1-c1cnn2ccc(N3CCN(C(=O)[C@@H](N)CC(C)C)CC3)nc12 [(S)-2-amino-1-(4-(3-(2-methoxypyridin-3-yl)pyrazolo[1,5-a]pyrimidin-5-yl)piperazin-1-yl)-4-methylpentan-1-one]
≤ 100 nM	≤ 10 nM	CN[C@H](C(=O)N1CCN(c2ccn3ncc(-c4cccnc4OC)c3n2)CC1)C(C)(C)C [(S)-1-(4-(3-(2-methoxypyridin-3-yl)pyrazolo[1,5-a]pyrimidin-5-yl)piperazin-1-yl)-3,3-dimethyl-2-(methylamino)butan-1-one]

Continued, molecule first:

SMILES	IC50 (AAK1 [1])	IC50 (AAK1 [2])
COc1ncc(F)cc1-c1cnn2ccc(N3CCN(C(=O)O[C@@H]4CCOC4)CC3)nc12 [(R)-tetrahydrofuran-3-yl 4-(3-(5-fluoro-2-methoxypyridin-3-yl)pyrazolo[1,5-a]pyrimidin-5-yl)piperazine-1-carboxylate]	≤ 10 nM	≤ 10 nM
CC(C)[C@H](N)C(=O)N1CCN(c2ccn3ncc(-c4cccc(F)c4)c3n2)CC1 [(S)-2-amino-1-(4-(3-(3-fluorophenyl)pyrazolo[1,5-a]pyrimidin-5-yl)piperazin-1-yl)-3-methylbutan-1-one]	≤ 10 nM	≤ 10 nM
CC(C)OC(=O)N1CCN(c2ccn3ncc(-c4ccc(CN)cc4)c3n2)CC1 [isopropyl 4-(3-(4-(aminomethyl)phenyl)pyrazolo[1,5-a]pyrimidin-5-yl)piperazine-1-carboxylate]	≤ 10 nM	≤ 10 nM
COc1ncccc1-c1cnn2ccc(NCCCOC(C)(C)C)nc12 [N-(3-(tert-butoxy)propyl)-3-(2-methoxypyridin-3-yl)pyrazolo[1,5-a]pyrimidin-5-amine]	≤ 100 nM	≤ 10 nM
CC(C)[C@H](N)C(=O)N1CCN(c2ccn3ncc(-c4ccc(F)cc4)c3n2)CC1 [(S)-2-amino-1-(4-(3-(4-fluorophenyl)pyrazolo[1,5-a]pyrimidin-5-yl)piperazin-1-yl)-3-methylbutan-1-one]	≤ 10 nM	≤ 10 nM
COc1cccc(-c2cnn3ccc(NC[C@@H]4CCCN4C(=O)OC(C)(C)C)nc23)c1 [(S)-tert-butyl 2-(((3-(3-methoxyphenyl)pyrazolo[1,5-a]pyrimidin-5-yl)amino)methyl)pyrrolidine-1-carboxylate]	≤ 10 nM	≤ 10 nM
COc1cc(C)c(F)cc1-c1cnn2ccc(N3CCN(C(=O)OC(C)C)CC3)nc12 [isopropyl 4-(3-(5-fluoro-2-methoxy-4-methylphenyl)pyrazolo[1,5-a]pyrimidin-5-yl)piperazine-1-carboxylate]	≤ 10 nM	≤ 10 nM
COc1nc(C)ccc1-c1cnn2ccc(N3CC[C@H](N(C)C(=O)OC(C)C)C3)nc12 [(S)-isopropyl (1-(3-(2-d3-methoxy-6-methylpyridin-3-yl)pyrazolo[1,5-a]pyrimidin-5-yl)pyrrolidin-3-yl)(methyl)carbamate]	≤ 100 nM	≤ 10 nM
CC(C)OC(=O)N1CCN(c2ccn3ncc(-c4ccc(OCCN)cc4)c3n2)CC1 [isopropyl 4-(3-(4-(2-aminoethoxy)phenyl)pyrazolo[1,5-a]pyrimidin-5-yl)piperazine-1-carboxylate]	≤ 100 nM	≤ 10 nM
COc1nc(C)ccc1-c1cnn2ccc(N(C)CCCN(C)C(=O)OC(C)C)nc12 [isopropyl (3-((3-(2-methoxy-6-methylpyridin-3-yl)pyrazolo[1,5-a]pyrimidin-5-yl)(methyl)amino)propyl)(methyl)carbamate]	≤ 100 nM	≤ 10 nM
COc1ncccc1-c1cnn2ccc(N(C)C[C@@H]3CCCN3C(=O)OC(C)C)nc12 [(S)-isopropyl 2-(((3-(2-methoxypyridin-3-yl)pyrazolo[1,5-a]pyrimidin-5-yl)(methyl)amino)methyl)pyrrolidine-1-carboxylate]	≤ 10 nM	≤ 10 nM
COc1ccncc1-c1cnn2ccc(NC[C@@H]3CCCN3C(=O)OC(C)(C)C)nc12 [(S)-tert-butyl 2-(((3-(4-methoxypyridin-3-yl)pyrazolo[1,5-a]pyrimidin-5-yl)amino)methyl)pyrrolidine-1-carboxylate]	≤ 10 nM	≤ 10 nM
COc1ncc(-c2cnn3ccc(N4CCN(C(=O)OC(C)C)CC4)nc23)c(OC)n1 [isopropyl 4-(3-(2,4-dimethoxypyrimidin-5-yl)pyrazolo[1,5-a]pyrimidin-5-yl)piperazine-1-carboxylate]	≤ 100 nM	≤ 10 nM
